This is an account of results in US6872729B2, “Pyrimidinylbenzimidazole and triazinylbenzimidazole derivatives and agricultural/horticultural fungicides” (Kumiai Chemical Industry Co., Ltd., priority 1998, dated 2005).

The assay deals with Erysiphe graminis. In words: Test for preventive effect on wheat powdery mildew. The settings on record: wheat (Norin-61-go) seedlings, 500 ppm active ingredient, preventive treatment; diseased area of first leaves 10 days after inoculation with Erysiphe graminis. It counts as in vivo. The procedure: Test for Preventive Effect on Wheat Powdery Mildew 9 Wheat seeds (variety: Norin-61-go) were sown in each 9 cm×9 cm polyvinyl chloride pot, grown in a greenhouse for 8 days, then treated with 10 ml per pot of aqueous solutions of wettable powders prepared in accordance with Formulation Example 2, at a concentration of 500 ppm in terms of the active ingredients and dried in the air. Then, the seedlings were inoculated with Erysiphe graminis spores by sprinkle over the plant and placed in a greenhouse of from 20 to 25° C. 10 days after the inoculation, the total diseases area of the first leaves in each pot was observed and evaluated on the basis of the standards shown in Table 67. [table]

With `COc1cc(OC)nc(-n2cnc3ccccc32)n1` [Compound I-1], the Biological effectiveness entry is listed as “A (No diseased area)”.
In the case of `COc1cc(OC)nc(-n2c(Cl)nc3ccccc32)n1` [Compound I-2], the Biological effectiveness result is “A (No diseased area)”.
As for `COc1cc(OC)nc(-n2c(Br)nc3ccccc32)n1` [Compound I-3], the Biological effectiveness entry is reported as “A (No diseased area)”.
Take `COc1cc(OC)nc(-n2c(C)nc3ccccc32)n1` [Compound I-6]: the Biological effectiveness entry is recorded as “B (Diseased area of less than 25%)”.
As to `CCc1nc2ccccc2n1-c1nc(OC)cc(OC)n1` [Compound I-7], the Biological effectiveness entry is reported as “A (No diseased area)”.
`COc1cc(OC)nc(-n2c(C3CC3)nc3ccccc32)n1` [Compound I-10]: the Biological effectiveness entry is “B (Diseased area of less than 25%)”.
With `CCOCc1nc2ccccc2n1-c1nc(OC)cc(OC)n1` [Compound I-22], the Biological effectiveness entry is “A (No diseased area)”.
Consider `COc1cc(OC)nc(-n2c(CCl)nc3ccccc32)n1` [Compound I-23], for which the Biological effectiveness result was “A (No diseased area)”.
Next, `COc1cc(OC)nc(-n2c(C(Cl)(Cl)Cl)nc3ccccc32)n1` [Compound I-25]: “A (No diseased area)”; `COc1cc(OC)nc(-n2c(C(F)(F)F)nc3ccccc32)n1` [Compound I-26]: “A (No diseased area)”.
On to `COc1cc(OC)nc(-n2c(C(F)(F)C(F)(F)F)nc3ccccc32)n1` [Compound I-27], for which the Biological effectiveness result is reported as “B (Diseased area of less than 25%)”.
Regarding `CNc1nc2ccccc2n1-c1nc(OC)cc(OC)n1` [Compound I-29], the Biological effectiveness entry is “B (Diseased area of less than 25%)”.
Turning to `COc1cc(OC)nc(-n2c(N(C)C)nc3ccccc32)n1` [Compound I-30], the Biological effectiveness result was “B (Diseased area of less than 25%)”.
Take `COc1cc(OC)nc(-n2c(-c3ccc(Cl)cc3)nc3ccccc32)n1` [Compound I-35]: the Biological effectiveness entry was “B (Diseased area of less than 25%)”.
As to `COc1cc(OC)nc(-n2c(C#N)nc3ccccc32)n1` [Compound I-38], the Biological effectiveness entry is reported as “B (Diseased area of less than 25%)”.
To `COc1nc(OC)nc(-n2cnc3ccccc32)n1` [Compound I-40] belongs “B (Diseased area of less than 25%)”.
`COc1nc(OC)nc(-n2c(Cl)nc3ccccc32)n1` [Compound I-41]: the Biological effectiveness entry is listed as “A (No diseased area)”.
Turning to `COc1nc(OC)nc(-n2c(C)nc3ccccc32)n1` [Compound I-45], the Biological effectiveness result was “A (No diseased area)”.
As to `COc1nc(OC)nc(-n2c(C(F)(F)F)nc3ccccc32)n1` [Compound I-66], the Biological effectiveness entry was “A (No diseased area)”.
Regarding `COc1cc(OC)nc(-n2cnc3cc(F)ccc32)n1` [Compound I-82], the Biological effectiveness result was “A (No diseased area)”.
Consider `COc1cc(OC)nc(-n2cnc3cc(Cl)ccc32)n1` [Compound I-83], for which the Biological effectiveness entry is on record as “B (Diseased area of less than 25%)”.
As for `COc1cc(OC)nc(-n2cnc3cc(Br)ccc32)n1` [Compound I-84], the Biological effectiveness result is recorded as “A (No diseased area)”.
As for `COc1cc(OC)nc(-n2cnc3cc(C)ccc32)n1` [Compound I-85], the Biological effectiveness result was “A (No diseased area)”.
Turning to `COc1cc(OC)nc(-n2cnc3cc(C(F)(F)F)ccc32)n1` [Compound I-87], the Biological effectiveness result is on record as “A (No diseased area)”.
For `COc1ccc2c(c1)ncn2-c1nc(OC)cc(OC)n1` [Compound I-88], the Biological effectiveness result is listed as “B (Diseased area of less than 25%)”.
To `COc1cc(OC)nc(-n2cnc3cc(OC(F)(F)F)ccc32)n1` [Compound I-91] belongs “B (Diseased area of less than 25%)”; to `COc1cc(OC)nc(-n2cnc3cc(C#N)ccc32)n1` [Compound I-111], “B (Diseased area of less than 25%)”.
As to `COc1cc(OC)nc(-n2cnc3ccc(F)cc32)n1` [Compound I-112], the Biological effectiveness result is on record as “B (Diseased area of less than 25%)”.
Regarding `COc1cc(OC)nc(-n2cnc3ccc(Cl)cc32)n1` [Compound I-113], the Biological effectiveness entry was “B (Diseased area of less than 25%)”.
In the case of `COc1cc(OC)nc(-n2cnc3ccc(C)cc32)n1` [Compound I-114], the Biological effectiveness result was “B (Diseased area of less than 25%)”.
With `COc1ccc2ncn(-c3nc(OC)cc(OC)n3)c2c1` [Compound I-116], the Biological effectiveness entry is recorded as “B (Diseased area of less than 25%)”.
`COc1cc(OC)nc(-n2cnc3cc(C)c(C)cc32)n1` [Compound I-122]: the Biological effectiveness entry was “B (Diseased area of less than 25%)”.
For the compound `COc1nc(OC)nc(-n2cnc3cc(Cl)ccc32)n1` [Compound I-130], the Biological effectiveness entry is on record as “A (No diseased area)”.
Take `COc1nc(OC)nc(-n2cnc3cc(Br)ccc32)n1` [Compound I-131]: the Biological effectiveness entry is “A (No diseased area)”.
`COc1nc(OC)nc(-n2cnc3cc(I)ccc32)n1` [Compound I-132]: the Biological effectiveness result is on record as “A (No diseased area)”.
Consider `COc1nc(OC)nc(-n2cnc3cc(C)ccc32)n1` [Compound I-133], for which the Biological effectiveness entry was “A (No diseased area)”.
For `CCc1ccc2c(c1)ncn2-c1nc(OC)nc(OC)n1` [Compound I-134], the Biological effectiveness entry is on record as “A (No diseased area)”.
Regarding `CCCc1ccc2c(c1)ncn2-c1nc(OC)nc(OC)n1` [Compound I-135], the Biological effectiveness result is given as “A (No diseased area)”.
With `COc1nc(OC)nc(-n2cnc3cc(C(C)C)ccc32)n1` [Compound I-136], the Biological effectiveness entry is “B (Diseased area of less than 25%)”.
For `COc1ccc2c(c1)ncn2-c1nc(OC)nc(OC)n1` [Compound I-141], the Biological effectiveness entry is listed as “A (No diseased area)”.
Regarding `COc1nc(OC)nc(-n2cnc3cc(Cl)c(Cl)cc32)n1` [Compound I-175], the Biological effectiveness entry was “A (No diseased area)”.
In the case of `COc1nc(OC)nc(-n2cnc3cc(C)c(C)cc32)n1` [Compound I-176], the Biological effectiveness result is given as “A (No diseased area)”.
Next, `COc1cc(OC)nc(-n2c(C)nc3c(C)cccc32)n1` [Compound I-181]: “B (Diseased area of less than 25%)”; `COc1cc(OC)nc(-n2c(C)nc3cc(F)ccc32)n1` [Compound I-183]: “B (Diseased area of less than 25%)”.
Turning to `COc1cc(OC)nc(-n2c(C)nc3cc(Cl)ccc32)n1` [Compound I-184], the Biological effectiveness result is recorded as “A (No diseased area)”.
As for `COc1cc(OC)nc(-n2c(C)nc3cc(Br)ccc32)n1` [Compound I-185], the Biological effectiveness entry was “A (No diseased area)”.
Next, `COc1cc(OC)nc(-n2c(C)nc3cc(C(F)(F)F)ccc32)n1` [Compound I-188]: “A (No diseased area)”; `COc1ccc2c(c1)nc(C)n2-c1nc(OC)cc(OC)n1` [Compound I-189]: “A (No diseased area)”.
With `COc1cc(OC)nc(-n2c(C)nc3cc(OC(F)(F)F)ccc32)n1` [Compound I-192], the Biological effectiveness result is “B (Diseased area of less than 25%)”.
With `COc1cc(OC)nc(-n2c(C)nc3cc(C(=O)c4ccccc4)ccc32)n1` [Compound I-195], the Biological effectiveness result is given as “B (Diseased area of less than 25%)”.
To `COc1cc(OC)nc(-n2c(C)nc3cc(C#N)ccc32)n1` [Compound I-199] belongs “B (Diseased area of less than 25%)”; to `COc1cc(OC)nc(-n2c(C)nc3ccc(F)cc32)n1` [Compound I-200], “A (No diseased area)”.
Turning to `COc1cc(OC)nc(-n2c(C)nc3ccc(Cl)cc32)n1` [Compound I-201], the Biological effectiveness entry is reported as “A (No diseased area)”.
With `COc1cc(OC)nc(-n2c(C)nc3ccc(C)cc32)n1` [Compound I-202], the Biological effectiveness result is on record as “B (Diseased area of less than 25%)”.
Regarding `COc1cc(OC)nc(-n2c(C)nc3ccc(C(F)(F)F)cc32)n1` [Compound I-203], the Biological effectiveness result is recorded as “B (Diseased area of less than 25%)”.
As to `COc1ccc2nc(C)n(-c3nc(OC)cc(OC)n3)c2c1` [Compound I-204], the Biological effectiveness result was “A (No diseased area)”.
For the compound `COc1cc(OC)nc(-n2c(C)nc3ccc(C(=O)c4ccccc4)cc32)n1` [Compound I-208], the Biological effectiveness result was “B (Diseased area of less than 25%)”.
Turning to `COc1cc(OC)nc(-n2c(C)nc3cc(Cl)c(Cl)cc32)n1` [Compound I-209], the Biological effectiveness entry was “B (Diseased area of less than 25%)”.
Turning to `COc1nc(OC)nc(-n2c(C)nc3c(C)cccc32)n1` [Compound I-212], the Biological effectiveness entry is “B (Diseased area of less than 25%)”.
Regarding `COc1nc(OC)nc(-n2c(C)nc3cc(F)ccc32)n1` [Compound I-214], the Biological effectiveness result was “A (No diseased area)”.
As for `COc1nc(OC)nc(-n2c(C)nc3cc(Br)ccc32)n1` [Compound I-216], the Biological effectiveness result was “A (No diseased area)”.
Turning to `COc1nc(OC)nc(-n2c(C)nc3cc(I)ccc32)n1` [Compound I-217], the Biological effectiveness entry is reported as “A (No diseased area)”.
On to `COc1nc(OC)nc(-n2c(C)nc3cc(C)ccc32)n1` [Compound I-218], for which the Biological effectiveness result is reported as “A (No diseased area)”.
Next, `CCc1ccc2c(c1)nc(C)n2-c1nc(OC)nc(OC)n1` [Compound I-219]: “A (No diseased area)”; `CCCc1ccc2c(c1)nc(C)n2-c1nc(OC)nc(OC)n1` [Compound I-220]: “B (Diseased area of less than 25%)”; `COc1nc(OC)nc(-n2c(C)nc3cc(C(C)C)ccc32)n1` [Compound I-221]: “B (Diseased area of less than 25%)”.
